Reference: US12152035B2, “Androgen receptor binding molecule and use thereof” (Industrial Technology Research Institute, priority 2020, dated 2024)

Columns and labels:
Format in all cases: cell-based
CWR22RV1 cells = experiment: Cytotoxicity assay (AlamarBlue, 72 hours); conditions: 72 hours treatment, concentration not given
Method: (§1) Compound stock solutions of 10 mM were prepared with 100% DMSO and shaken for 10-15 seconds. The compound stock solutions were centrifuged at 12000 rpm (13523 rcf.) for 5 minutes and record the turbidity or precipitation state with a photo snapshot. The compound stock solutions were resuspended by shaking for 10-15 seconds, and serially diluted with 100% DMSO solution to make the compound concentration to 1000 μM, then to 100, 10, and 1 μM, and then 10-fold diluted with medium to 100, 10, 1, 0.1 μM (final 10% DMSO/medium) to complete compound test sample preparation. Compound treatment was performed by adding 10 μL of compound test sample to cells in each well of a 96-well plate (final 1% DMSO/medium).
(§2) Cells (CWR22Rv1 cells or VCaP cells) were cultured in RPMI-1640 medium supplemented with 10% fetal bovine serum, 10,000 U/mL penicillin and 10,000 μg/mL streptomycin. Cells were cultured at 37° C. in a humidified 5% CO2 incubator.
(§3) Cells were seeded in a 96-well plate (1×10^4 cells/well). 10 μL of the above compound test sample was added to each well of the 96-well plate on next day. After 72 hours of compound treatment, 10 μL of AlamaBlue reagent was added to each of 96 wells and incubated for 4 hours. The fluorescence value at Ex/Em=560/590 nm was read with a microplate reader, and the cytotoxicity (%) was calculated.
(§4) According to the above method, the compounds prepared above were subjected to cytotoxicity test with CWR22RV1 cells and VCaP cells.

VCaP cells = experiment: Cytotoxicity assay (AlamarBlue, 72 hours); conditions: 72 hours treatment, concentration not given
Method: as §1, §2, §3, §4

[1] = tested on: full-length androgen receptor; experiment: Western blot: degradation of full-length androgen receptor in CWR22RV1 cells; conditions: overnight
Method: CWR22Rv1 cells were maintained in RPMI medium supplemented with 10% fetal bovine serum and 1% penicillin-streptomycin at 37° C. in a humidified environment with 5% CO2.
CWR22Rv1 (5×10^5 cells) were seeded in each well of a 6-well plate and incubated overnight. Before compound treatment, the medium in the wells was replaced with a new medium. Cells were treated with different concentrations of compound overnight. Subsequently, cells were harvested by adding cold PBS and scraping cells. Cells were lysed according to general procedures and Western blot assays were performed to assess the ability of compounds to degrade full-length androgen receptor or androgen receptor splice variant 7. The cells or cell lysates were kept on ice at all times.
The following reagents were used in this experiment. Phosphate buffered saline (PBS) (Hyclone, SH30028.02), fetal bovine serum (Hyclone, SH30084.23, Lot AC14563276), penicillin-streptomycin solution (Hyclone, SV30010), 0.5% Trypsin-EDTA (Gibco, 15400-054), CST Lysis Buffer (CST-9803), Halt™ Protease and Phosphatase Inhibitor (ThermoFisher, 78442), Coomassie (Bradford) Protein Assay (Coomassie (Bradford) protein assay) (ThermoFisher, 23200), androgen receptor antibody (Cell Siginaling, CST-5153S), GAPDH antibody (Cell Siginaling, CST-5174S), HRP-goat-anti-rabbit (Jackson Immuno Research, 111-035-003), skim milk, SuperSignal West Pico Maximum Sensitivity substrate (ThermoFisher, 34080).
The compound prepared above was analyzed for its ability to degrade full-length androgen receptor and androgen receptor splice variant 7 in CWR22RV1 cells by Western blotting according to the method shown in item B.3-2 above.

[2] = compound concentration 0.1 (unit not given)
[3] = compound concentration 1 (unit not given)
[4] = compound concentration 10 (unit not given)

Row | Compound | Cytotoxicity, CWR22RV1 cells (cell viability %) (CWR22RV1 cells) | Cytotoxicity, VCaP cells (cell viability %) (VCaP cells) | Degradation ability for full-length androgen receptor (residual rate %) [1, 2] | Degradation ability for full-length androgen receptor (residual rate %) [1, 3] | Degradation ability for full-length androgen receptor (residual rate %) [1, 4]
1 | Cc1ncsc1-c1ccc(CNC(=O)[C@@H]2C[C@H](O)CN2C(=O)[C@@H](NC(=O)C2CCC(C(=O)N3CCC(C#Cc4ccc(C5CCN(C6=Nn7c(nnc7C(F)(F)F)CC6)CC5)cc4)CC3)CC2)C(C)(C)C)cc1 (stereo in doubt) [Compound 34, 1-(3,3-dimethyl-2-(4-(4-((4-(1-(3-(trifluoromethyl)-7,8-dihydro-[1,2,4]triazolo[4,3-b]pyridazin-6-yl)piperidin-4-yl)phenyl)ethynyl)piperidine-1-carbonyl)cyclohexane-1-carboxamido)butanoyl)-4-hydroxy-N-(4-(4-methylthiazol-5-yl)benzyl)pyrrolidine-2-carboxamide] | + (60-80% : +) | +++ (<40% : +++) |  |  | 
2 | Cc1ncsc1-c1ccc(CNC(=O)[C@@H]2C[C@H](O)CN2C(=O)C(NC(=O)CC2O[C@H](CNC(=O)COc3ccc(C4CCN(C5=Nn6c(nnc6C(F)(F)F)CC5)CC4)cc3)[C@@H](O)[C@H]2O)C(C)(C)C)cc1 (stereo partly drawn) [Compound 7, 1-(2-(2-((3R,4S,5R)-3,4-dihydroxy-5-((2-(4-(1-(3-(trifluoromethyl)-7,8-dihydro-[1,2,4]triazolo[4,3-b]pyridazin-6-yl)piperidin-4-yl)phenoxy)acetamido)methyl)tetrahydrofuran-2-yl)acetamido)-3,3-dimethylbutanoyl)-4-hydroxy-N-(4-(4-methylthiazol-5-yl)benzyl)pyrrolidine-2-carboxamide] | − (<80% : −) |  | − (>80%; −) | − (>80%; −) | − (>80%; −)
3 | Cc1ncsc1-c1ccc(CNC(=O)[C@@H]2C[C@H](O)CN2C(=O)[C@@H](NC(=O)COCCCCOc2ccc(C3CCN(C4=Nn5c(nnc5-c5ccc(C(F)(F)F)cc5)CC4)CC3)cc2)C(C)(C)C)cc1 [Compound 8, (2S,4S)-1-((S)-3,3-dimethyl-2-(2-(4-(4-(1-(3-(4-(trifluoromethyl)phenyl)-7,8-dihydro-[1,2,4]triazolo[4,3-b]pyridazin-6-yl)piperidin-4-yl)phenoxy)butoxy)acetamido)butanoyl)-4-hydroxy-N-(4-(4-methylthiazol-5-yl)benzyl)pyrrolidine-2-carboxamide] | +++ (<40% : +++) |  | − (>80%; −) | + (60-80%: +) | +++ (<40%: +++)
4 | Cc1ncsc1-c1ccc(CNC(=O)[C@@H]2C[C@H](O)CN2C(=O)[C@@H](NC(=O)CCCN2CCC(C#Cc3ccc(C4CCN(C5=Nn6c(nnc6C(F)(F)F)CC5)CC4)cc3)CC2)C(C)(C)C)cc1 [Compound 13, (2S,4S)-1-((S)-3,3-dimethyl-2-(4-(4-((4-(1-(3-(trifluoromethyl)-7,8-dihydro-[1,2,4]triazolo[4,3-b]pyridazin-6-yl)piperidin-4-yl)phenyl)ethynyl)piperidin-1-yl)butanamido)butanoyl)-4-hydroxy-N-(4-(4-methylthiazol-5-yl)benzyl)pyrrolidine-2-carboxamide] | +++ (<40% : +++) | +++ (<40% : +++) |  |  | 
5 | Cc1ncsc1-c1ccc(CNC(=O)[C@@H]2C[C@H](O)CN2C(=O)[C@@H](NC(=O)COCCCOc2ccc(C3CCN(C4=Nn5c(nnc5C(F)(F)F)CC4)CC3)cc2)C(C)(C)C)cc1 [Compound 20, (2S,4S)-1-((S)-3,3-dimethyl-2-(2-(3-(4-(1-(3-(trifluoromethyl)-7,8-dihydro-[1,2,4]triazolo[4,3-b]pyridazin-6-yl)piperidin-4-yl)phenoxy)propoxy)acetamido)butanoyl)-4-hydroxy-N-(4-(4-methylthiazol-5-yl)benzyl)pyrrolidine-2-carboxamide] | +++ (<40% : +++) | ++ (40-60% : ++) |  |  | 
6 | Cc1ncsc1-c1ccc(CNC(=O)[C@@H]2C[C@H](O)CN2C(=O)[C@@H](NC(=O)COCCCCCCCOc2ccc(C3CCN(C4=Nn5c(nnc5C(F)(F)F)CC4)CC3)cc2)C(C)(C)C)cc1 [Compound 23, (2S,4S)-1-((S)-3,3-dimethyl-2-(2-((7-(4-(1-(3-(trifluoromethyl)-7,8-dihydro-[1,2,4]triazolo[4,3-b]pyridazin-6-yl)piperidin-4-yl)phenoxy)heptyl)oxy)acetamido)butanoyl)-4-hydroxy-N-(4-(4-methylthiazol-5-yl)benzyl)pyrrolidine-2-carboxamide] | +++ (<40% : +++) | +++ (<40% : +++) |  |  | 
7 | Cc1ncsc1-c1ccc(CNC(=O)C2CC(O)CN2C(=O)C(NC(=O)CC2O[C@H](COc3ccc(C4CCN(C5=Nn6c(nnc6C(F)(F)F)CC5)CC4)cc3)[C@@H](O)[C@H]2O)C(C)(C)C)cc1 (stereo partly drawn) [Compound 29, 1-(2-(2-((3R,4S,5R)-3,4-dihydroxy-5-((4-(1-(3-(trifluoromethyl)-7,8-dihydro-[1,2,4]triazolo[4,3-b]pyridazin-6-yl)piperidin-4-yl)phenoxy)methyl)tetrahydrofuran-2-yl)acetamido)-3,3-dimethylbutanoyl)-4-hydroxy-N-(4-(4-methylthiazol-5-yl)benzyl)pyrrolidine-2-carboxamide] | − (<80% : −) |  | + (60-80%: +) | − (>80%; −) | − (>80%; −)
8 | O=C1CCC(N2Cc3c(C#CCCCCOc4ccc(C5CCN(C6=Nn7c(nnc7C(F)(F)F)CC6)CC5)cc4)cccc3C2=O)C(=O)N1 (stereo not shown) [Compound 31, 3-(1-oxo-4-(6-(4-(1-(3-(trifluoromethyl)-7,8-dihydro-[1,2,4]triazolo[4,3-b]pyridazin-6-yl)piperidin-4-yl)phenoxy)hex-1-ynyl)isoindolin-2-yl)piperidine-2,6-dione] | + (60-80% : +) | + (60-80% : +) |  |  | 
9 | O=C1CCC(N2Cc3c(NC(=O)COCCCCCCOc4ccc(C5CCN(C6=Nn7c(nnc7C(F)(F)F)CC6)CC5)cc4)cccc3C2=O)C(=O)N1 (stereo not shown) [Compound 32, N-(2-(2,6-dioxopiperidin-3-yl)-1-oxoisoindolin-4-yl)-2-((6-(4-(1-(3-(trifluoromethyl)-7,8-dihydro-[1,2,4]triazolo[4,3-b]pyridazin-6-yl)piperidin-4-yl)phenoxy)hexyl)oxy)acetamide] | + (60-80% : +) | ++ (40-60% : ++) |  |  | 
10 | Cc1ncsc1-c1ccc(CNC(=O)[C@@H]2C[C@H](O)CN2C(=O)[C@@H](NC(=O)c2ccc(C(=O)N3CCC(C#Cc4ccc(C5CCN(C6=Nn7c(nnc7C(F)(F)F)CC6)CC5)cc4)CC3)cc2)C(C)(C)C)cc1 [Compound 33, 1-(3,3-dimethyl-2-(4-(4-((4-(1-(3-(trifluoromethyl)-7,8-dihydro-[1,2,4]triazolo[4,3-b]pyridazin-6-yl)piperidin-4-yl)phenyl)ethynyl)piperidine-1-carbonyl)benzamido)butanoyl)-4-hydroxy-N-(4-(4-methylthiazol-5-yl)benzyl)pyrrolidine-2-carboxamide] | − (<80% : −) | +++ (<40% : +++) |  |  | 
11 | Cc1ncsc1-c1ccc(CNC(=O)[C@@H]2C[C@H](O)CN2C(=O)[C@@H](NC(=O)COCCCCOc2ccc(C3CCN(C4=Nn5c(nnc5C(F)(F)F)CC4)CC3)cc2)C(C)(C)C)c(O)c1 [Compound 35, (2S,4S)-1-((S)-3,3-dimethyl-2-(2-(4-(4-(1-(3-(trifluoromethyl)-7,8-dihydro-[1,2,4]triazolo[4,3-b]pyridazin-6-yl)piperidin-4-yl)phenoxy)butoxy)acetamido)butanoyl)-4-hydroxy-N-(2-hydroxy-4-(4-methylthiazol-5-yl)benzyl)pyrrolidine-2-carboxamide] | +++ (<40% : +++) | +++ (<40% : +++) |  |  | 
